What all share (format): cell-based, human
Assay [1] deals with BEL-7402 liver cancer cell. As to the kind of experiment: MTT anti-proliferative assay, BEL-7402. As to conditions: MTT, 48 h. The method, boiled down:
(§1)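 Anti-proliferative effect is measured with the MTT assay, which reports inhibition of net cell growth. Cells come from ATCC, are maintained in DMEM with FBS and are seeded into 96-well plates before treatment.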
(Formazan colour is commonly taken as a measure of viable cells.)

Assay [2] deals with MCF-10A normal breast cell. As to the kind of experiment: MTT assay, MCF-10A normal cells. The note with it: 48 h. The method in brief: as §1
Assay [3] deals with Raji B lymphoblastoid cell. As to the kind of experiment: MTT anti-proliferative assay, Raji. The method, boiled down:
as §1

Assay [4] deals with diffuse large B-cell lymphoma SU-DHL-10 cell. The experiment in a line: MTT anti-proliferative assay, SU-DHL-10. The method in brief: as §1
Assay [5] concerns HCT116 colectal cancer cell. As to the kind of experiment: MTT anti-proliferative assay, HCT116. As to conditions: for IC50: MTT, 48 h, read-out: IC50 HCT-116. The method in brief:
as §1

Assay [6] has as its system HepG2 hepatoma cell. As to the kind of experiment: MTT anti-proliferative assay, HepG2. As to conditions: MTT, 48 h; read-out: IC50 HepG-2. The method in brief:
as §1

Assay [7] deals with HeLa cervical cancer cell. The experiment in a line: MTT anti-proliferative assay, HeLa. The note with it: MTT, 48 h. The method, boiled down: as §1
Assay [8] relates to MCF-7 breast cancer cell. The experiment in a line: MTT anti-proliferative assay, MCF-7. The note with it: MTT, 48 h. The method in brief: as §1
Assay [9] relates to MGC-803 late stage differentiation gastric cancer cell. The experiment in a line: MTT anti-proliferative assay, MGC-803. The note with it: MTT, 48 h. The method in brief:
as §1

Assay [10] concerns A549 lung cancer cell. The experiment in a line: MTT anti-proliferative assay, A549. The note with it: MTT, 48 h. The method, boiled down:
as §1

In assay [11] the test system is L-02 normal liver cell. As to the kind of experiment: MTT assay, L-02 normal cells. The note with it: 48 h. The method, boiled down: as §1
In assay [12] the test system is SGC-7901 early differentiation gastric cancer cell. As to the kind of experiment: MTT anti-proliferative assay, SGC-7901. As to conditions: MTT, 48 h. The method in brief:
as §1

Assay [13] relates to AGS gastric cancer cell. As to the kind of experiment: MTT anti-proliferative assay, AGS. The note with it: for IC50: MTT, 48 h. The method in brief:
as §1

[14] abbreviates: MTT, 48 h, read-out: IC50 SU-DHL-10.

Like-named read-outs stand apart in the source and are kept apart here.

One may read the IC50 as the concentration needed to halve the response being measured. Turning to `Cc1cccc(/C=C(\C#N)c2ccc(C(F)(F)F)cc2)c1` [Compound 1f2o], the half-inhibitory concentration (IC50) in assay [1] was above 100 µM; in assay [2], above 100 µM; in assay [3] (MTT, 48 h, read-out: IC50 Raji), above 100 µM; in [4] (setting [14]), above 100 µM; in assay [5] it was above 100 µM; in assay [6] it was above 100 µM. The half-maximal inhibitory concentration (IC50) in assay [7], in assay [8], in assay [9], in assay [10], in assay [11] and in [12] was above 100 µM in each case. This compound also registered an IC50 in assay [13] of 41.2 ± 1.1 µM.

As for `CCc1ccc(/C=C(\C#N)c2ccc(C(F)(F)F)cc2)cc1` [Compound 1f2p], the IC50 was above 100 µM in [1]; above 100 µM in [2]; above 100 µM in assay [3] (MTT, 48 h, read-out: IC50 Raji); above 100 µM in assay [4] (setting [14]); above 100 µM in assay [5]; above 100 µM in [6]. The IC50 in assay [7], in assay [8], in assay [9], in assay [10], in assay [11] and in [12] was above 100 µM in each case. Besides, the IC50 in assay [13] is above 100 µM.

In the case of `CC(C)c1ccc(/C=C(\C#N)c2ccc(C(F)(F)F)cc2)cc1` [Compound 1f2q], the IC50 in assay [1] was above 100 µM; in [2], above 100 µM; in [3] (MTT, 48 h, read-out: IC50 Raji), 34.9 ± 4.5 µM; in assay [4] (setting [14]), 38.4 ± 3.6 µM; in assay [5] it was above 100 µM; in [6], above 100 µM. Besides, the IC50 in [7], in assay [8], in [9], in assay [10], in assay [11] and in assay [12] was above 100 µM in each case. This compound also showed an IC50 in [13] above 100 µM. The “SI (selectivity index), IC50 (L-02)/IC50 (Raji)” value in assay [3] is listed as above 2.8.

For the compound `Cc1cc(C)c(/C=C(\C#N)c2ccc(C(F)(F)F)cc2)c(C)c1` [Compound 1f2r], the IC50 is above 100 µM in [1]; above 100 µM in assay [2]; above 100 µM in [3] (MTT, 48 h, read-out: IC50 Raji); above 100 µM in assay [4] (setting [14]); above 100 µM in assay [5]; above 100 µM in assay [6]. The 50% inhibitory concentration (IC50) in [7], in [8], in [9], in assay [10], in assay [11] and in [12] was above 100 µM in each case. In addition, the IC50 in assay [13] is above 100 µM.

Consider `COc1ccc(/C=C(\C#N)c2ccc(C(F)(F)F)cc2)cc1` [Compound 1f2s], for which the IC50 in assay [1] was above 100 µM; in assay [2], above 100 µM; in [3] (MTT, 48 h, read-out: IC50 Raji), above 100 µM; in assay [4] (setting [14]), above 100 µM; in [5], 47.8 ± 0.7 µM; in [6] it was above 100 µM. Moreover, the IC50 in assay [7], in assay [8], in assay [9], in assay [10], in assay [11] and in assay [12] was above 100 µM throughout. In [13], this compound gave an IC50 above 100 µM. Besides, in assay [5], the “SI (selectivity index), IC50 (L-02)/IC50 (HCT-116)” value was above 2.0.

Take `COc1cccc(/C=C(\C#N)c2ccc(C(F)(F)F)cc2)c1` [Compound 1f2t]: the IC50 in assay [1] is above 100 µM; in [2], above 100 µM; in assay [3] (MTT, 48 h, read-out: IC50 Raji), above 100 µM; in assay [4] (setting [14]), above 100 µM; in [5], 33.2 ± 0.2 µM; in [6], above 100 µM. Besides, the IC50 in [7], in assay [8], in assay [9], in [10], in assay [11] and in assay [12] was above 100 µM in each case. This compound also yielded an IC50 in assay [13] of 77.5 ± 3.9 µM. Moreover, in [5], the “SI (selectivity index), IC50 (L-02)/IC50 (HCT-116)” value is above 3.0. Also, the “SI (selectivity index), IC50 (L-02)/IC50 (AGS)” value in assay [13] is given as above 1.2.

For the compound `COc1cc(/C=C(\C#N)c2ccc(C(F)(F)F)cc2)cc(OC)c1OC` [Compound 1f2u], the IC50 in assay [1] was above 100 µM; in assay [2], 92.5 ± 10.2 µM; in assay [3] (MTT, 48 h, read-out: IC50 Raji) it was above 100 µM; in assay [4] (setting [14]), above 100 µM; in assay [5], above 100 µM; in assay [6] it was above 100 µM. Besides, the IC50 in assay [7], in assay [8], in [9], in assay [10], in [11] and in assay [12] was above 100 µM each time. The 50% inhibitory concentration (IC50) in assay [13] was above 100 µM.

On to `N#C/C(=C\c1ccc(Oc2ccccc2)cc1)c1ccc(C(F)(F)F)cc1` [Compound 1f2v], for which the IC50 in assay [1] was above 100 µM; in [2], above 100 µM; in assay [3] (MTT, 48 h, read-out: IC50 Raji), above 100 µM; in [4] (setting [14]) it was above 100 µM; in [5] it was above 100 µM; in [6], above 100 µM. Further, the IC50 in assay [7], in [8], in assay [9], in assay [10], in assay [11] and in assay [12] was above 100 µM throughout. In [13], this compound showed an IC50 above 100 µM.

Take `N#C/C(=C\c1ccc(/C=C(\C#N)c2ccc(C(F)(F)F)cc2)cc1)c1ccc(C(F)(F)F)cc1` [Compound 1f2w]: the IC50 in [1] was above 100 µM; in assay [2] it was above 100 µM; in assay [3] (read-out: IC50 Raji cells), 0.048 µM; in assay [4] (read-out: IC50 SU-DHL-10 cells) it was 0.022 µM; in assay [5] it was above 100 µM; in [6], above 100 µM. Further, the IC50 in [7], in assay [8], in [9], in assay [10], in [11] and in [12] was above 100 µM throughout. In assay [13], this compound yielded an IC50 above 100 µM. Further, the “SI (selectivity index), IC50 (L-02)/IC50 (Raji)” value in assay [3] is above 2083. Also, the “SI (selectivity index), IC50 (L-02)/IC50 (SU-DHL-10)” value in [4] is above 4545.

For `N#C/C(=C\c1ccco1)c1ccc(C(F)(F)F)cc1` [Compound 1f3a], the IC50 was above 100 µM in assay [1]; above 100 µM in assay [2]; above 100 µM in [3] (MTT, 48 h, read-out: IC50 Raji); above 100 µM in assay [4] (setting [14]); above 100 µM in [5]; above 100 µM in [6]. Further, the IC50 in assay [7], in assay [8], in assay [9], in assay [10], in assay [11] and in [12] was above 100 µM in each case. The compound also gave an IC50 in assay [13] above 100 µM.

Turning to `N#C/C(=C\c1cccs1)c1ccc(C(F)(F)F)cc1` [Compound 1f3b], the IC50 is above 100 µM in assay [1]; above 100 µM in assay [2]; above 100 µM in assay [3] (MTT, 48 h, read-out: IC50 Raji); above 100 µM in assay [4] (setting [14]); above 100 µM in assay [5]; above 100 µM in assay [6]. Besides, the IC50 in assay [7], in [8], in assay [9], in [10], in assay [11] and in assay [12] was above 100 µM throughout. Half-maximal inhibition in assay [13] (IC50) required 65 ± 17.9 µM. Moreover, the “SI (selectivity index), IC50 (L-02)/IC50 (AGS)” value in assay [13] was above 1.5.

The values are drawn from PMC11071649, “Synthesis and Selective Anticancer Activity Evaluation of 2-phenylacrylonitrile Derivatives as Tubulin Inhibitors” (Current Medicinal Chemistry, 2024).
